Measurements taken from patent US10208074B2, “Pyrazole compounds and method for making and using the compounds” (Rigel Pharmaceuticals, Inc., priority 2015, dated 2019).
Where a name gives a salt, the structure may show the parent alone. Read-outs that look alike come from different tables or passages of the source.

Tests used:
IL-23p19 = test: LPS induced IL23p19 in THP-1 cells (with IFNγ primed) assay; type: cell-based, Human; settings: THP-1 cells, IFNγ primed, LPS 1 ug/mL, 18 hours, 10 pt, read-out: IL23-p19 ELISA, THP1-IFNy, LPS, 10 pt EC50
Excerpt: LPS Induced IL23p19 in THP-1 Cells (with IFNγ Primed) Assay
THP-1 Cells (ATCC, Cat#TIB-202), Dimethyl Sulfoxide (DMSO) (Sigma-Aldrich, Cat#D2650), RPMI 1640 (Cellgro, Cat#10-040-CM), Fetal Bovine Serum (Sigma, Cat#F4135), Albumin From Bovine Serum (BSA) (Sigma-Aldrich, Cat#A7906), LPS (Serotype K-235, Sigma, Product Number L 2143), IFNγ (Peprotech, Cat#300-02) Capture antibody: Human IL-23p19 ELISA (e-Bioscience, Cat. #14-7238-85), Detection antibody: Primary Mouse Biotinylated anti-human IL-12(p40/p70) (e-Bioscience, Cat. #13-7129-85), Secondary HRP-conjugated Streptavidin (R&D Systems, Cat#DY998), 1×PBST Washing Buffer (PBS-Tween tablet) (VWR International, Cat#80058-558), ELISA Blocking Buffer (PBS with 1% BSA), ELISA Dilution Buffer (PBS with 1% BSA), 384 Well Flat-Bottom, MaxiSorp Black Immuno Plates (Thermo Scientific, Cat#12-565-346), 384 Well Flat-Bottom, White Tissue Culture Plates (Thermo Scientific, Cat#12-565-343), Super Signal ELISA Pico Chemiluminescent Substrate (Thermo Scientific, Cat#37070), Cell Titer Glo reagent (Promega, Cat#G7573), Positive control, IKK2VI inhibitor (Calbiochem, Cat#401483), AquaMax 4000 plate washer (Molecular Devices), Luminometer, Wallac Victor2 1420 Multilabel Counter.
On day 1, 50K/well THP-1 cells were seeded and primed with IFNγ (50 ng/mL) in 384-well plates for about 18 hours in RPMI media with 10% FBS. On day 2, the compound was serially diluted in DMSO from 5 mM in 3-fold dilutions, and then diluted 1:125 in RPMI media with 10% FBS. 50 μL/well 2× compound was added to 50 μL/well THP-1 cells (with IFNγ primed) in duplicate in 384 well tissue culture plates. The cells were pre-incubated with compound for 1 hour at 37° C., 5% CO2 before addition of 10 μL/well 11×LPS to give a final concentration of 1 ug/mL LPS. Day 3, after stimulation for 18 hours at 37° C., 5% CO2, the assay plate was centrifuged and 70 μL/well supernatant was harvested. IL-23p19 protein in 70 μL/well of supernatant was measured by sandwich ELISA, and 25 μl/well Cell Titer Glo reagent was added to the remaining cells to measure compound toxicity.
Maxisorp immuno ELISA plates were pre-coated with 25 μL/well of anti-IL-23p19 capture antibody (2.5 ug/mL) in PBS overnight at room temperature. After washing with 1× PBST, the plates were blocked using 100 μL/well of 1% BSA in PBS for 2 hours at room temperature. The plates were washed three times with 1×PBST and 70 μL/well supernatant were added. The plates were incubated at room temperature for 2 hours with shaking and washed three times with 1×PBST. 25 μL/well of biotin labeled anti-IL-12(p40/p70) detection antibody (100 ng/mL) in PBS with 1% BSA was added and the plates were incubated at room temperature for 2 hours with shaking. After washing three times with 1×PBST, 25 μL/well of streptavidin-HRP (1:200) in PBS with 1% BSA was added and the plates were incubated at room temperature for 20 minutes with shaking. The plates were washed three times with 1× PBST and 25 μL/well of Super Signal ELISA Pico Chemiluminescent Substrate were added. The plates were read with a luminometer, and the chemiluminescence values were entered into Athena (Rigel) for curve fitting, EC50 calculation, and database storage.

IL-23 (p19/p40) = test: IL23-p19 ELISA, Dendritic, LPS (compound screening using DC cells); type: cell-based, Human; settings: PBMC-derived DC cells, IFNγ primed, LPS 1 μg/ml, 18 hours, 10 pt, read-out: IL23-p19 ELISA, Dendritic, LPS, 10 pt, EC50
Method: Compound Screening Using DC Cells
Human PBMC cells (400 million) obtained from the vendor were transferred into a T-175 flask containing 15 ml RPMI media (10% FBS) and incubate for 2 hours at 37° C. After 2 hours, the media including floating cells was aspirated out carefully and 12 ml of fresh RPMI media (10% FBS) containing GMCSF (100 ng/ml) and IL4 (20 ng/ml) was added, and the flask was kept in a 37° C. incubator for 7 days.
After 3 days, fresh GMCSF (100 ng/ml) and IL4 (20 ng/ml) were added to the flask and the incubation continued. After 7 days, the fully differentiated cells were harvested by spinning down (1200 rpm/5 min) and aspirating the media. The cells were suspended in fresh RPMI media (10% FBS) containing 50 ng/ml IFNγ (1000 U/ml) and then plated (50K/well in 100 μl) onto a white clear bottom 96 well plate and left in a 37° C. incubator for 24 hours.
After 24 hours incubation, 100 μl of RPMI media was added containing 2× concentrated test compound per well to the above cell-culture media (final concentration becomes 1×) and the plates were pre-incubated for 1 hour at 37° C. before stimulating with LPS.
After 1 hour compound pre-incubation, 10 piper well of 20× concentrated LPS solution in RPMI media was added to give a final concentration of 1 μg/ml. The mixture was shaken and incubated the plates at 37° C. for an additional 18 hours.
155 μl of the supernatant was harvested from each well carefully (without the tip touching the bottom of the well) and to the remaining 50 μl/well of the cell culture plate was added 50 μl of Cell Titer Glo reagent. The mixture was incubated for 1-2 minutes on a shaker and the plate was read for luminescence intensity to determine the compound cytotoxicity. The cell culture supernatant collected above was used to carry out IL23 ELISA (65 μl -Supernatant) and IL10 ELISA (90 μl—Supernatant) as described below.
Human IL-23 (p19/p40) ELISA Protocol (e-Biosciences)
To 10.5 ml PBS add 50 μl of anti-IL23 (p19) was added capture antibody (2.5 μg/ml). The mixture was mixed well and 100 μl of the coating solution was added to each well of the 96 well white plates from Pierce. The wells were covered and incubated overnight at 4° C.
The anti-IL23 (p19)-antibody-coated plates were washed 2× using TBST (use plate washer) and blocked using 200 μl of 0.5% Casein for 1.5-2 hours at room temperature with shaking.
The plates were washed 2× using TBST and the supernatant was transferred (65 μl/well) to the above pre-blocked/IL23(p19)-antibody-coated 96 well plate, and incubated at room temperature for 1.5 hours with shaking.
The plates were washed 4× using TBST (plate washer) and 100 μl/well detection antibody solution prepared from 2 μl of biotin labeled anti-IL-12 (p40/p70) antibody in 11 ml 1% BSA/PBS solution (1-5000 dilution) was added. The plates were incubated for 1 hour with shaking at Room temperature.
Again, the plates were washed 4× with TBST and 100 μl of HRP labeled Streptavidin (R&D Systems) solution (10 μl/10 ml 1% BSA solution) was added, and the plates were incubated at room temperature for another 45 minutes with shaking.
After 45 minutes, the plates were washed with TBST 4× and 100 ul/well Super Signal ELISA Pico Chemiluminescent Substrate from Pierce (3.5 ml A+3.5 ml B+3.5 ml MQ water) was added. The plates were shaken for 1-2 minutes then read on a plate reader.

SMILES | EC50 (IL-23p19; Homo sapiens, THP-1, 18 h) [nM] | EC50 (IL-23 (p19/p40); Homo sapiens, 18 h) [nM] | EC50 (IL-23p19) [nM] | EC50 (IL-23 (p19/p40)) [nM] | EC50 (IL-23 (p19/p40); formate) [nM]
O=C(Nc1cn(CCN2CCOCC2)nc1-c1ccccn1)c1ccc(-c2cn[nH]c2)o1 [Compound I-111, N-(1-(2-morpholinoethyl)-3-(pyridin-2-yl)-1H-pyrazol-4-yl)-5-(1H-pyrazol-4-yl)furan-2-carboxamide] | 29.1 | 26.8 |  |  | 
O=C(Nc1cn([C@H]2CC[C@@H](O)CC2)nc1-c1ccccn1)c1ccc(-c2cn[nH]c2)o1 [Compound I-124, N-(1-((1s,4s)-4-hydroxycyclohexyl)-3-(pyridin-2-yl)-1H-pyrazol-4-yl)-5-(1H-pyrazol-4-yl)furan-2-carboxamide formate] | 53.4 | 101 |  |  | 
COCCn1cc(NC(=O)c2ccc(-c3cnn(COP(=O)(O)O)c3)o2)c(-c2ccccn2)n1 [Compound I-12, (4-(5-((1-(2-methoxyethyl)-3-(pyridin-2-yl)-1H-pyrazol-4-yl)carbamoyl)furan-2-yl)-1H-pyrazol-1-yl)methyl dihydrogen phosphate] | 592 | 1050 |  |  | 
O=C(Nc1cn(C2COC2)nc1-c1ccccn1)c1ccc(-c2cn[nH]c2)o1 [Compound I-25, N-(1-(oxetan-3-yl)-3-(pyridin-2-yl)-1H-pyrazol-4-yl)-5-(1H-pyrazol-4-yl)furan-2-carboxamide] | 57.1 | 44.1 |  |  | 
CCO[C@@H]1CC[C@H](n2cc(NC(=O)c3ccc(-c4cn[nH]c4)o3)c(-c3ccccn3)n2)C1 [Compound I-132, N-(1-((1S,3R)-3-ethoxycyclopentyl)-3-(pyridin-2-yl)-1H-pyrazol-4-yl)-5-(1H-pyrazol-4-yl)furan-2-carboxamide formate] | 81.2 |  |  |  | 103
COCCOCCn1cc(NC(=O)c2ccc(-c3c[nH]nc3C)o2)c(-c2ccccn2)n1 [Compound I-18, N-(1-(2-(2-methoxyethoxy)ethyl)-3-(pyridin-2-yl)-1H-pyrazol-4-yl)-5-(3-methyl-1H-pyrazol-4-yl)furan-2-carboxamide] | 514 | 1200 |  |  | 
Cn1cc(NC(=O)c2ccc(-c3cn[nH]c3)o2)c(-c2ccc(N3CCOCC3)cn2)n1 [Compound I-105, N-(1-methyl-3-(5-morpholinopyridin-2-yl)-1H-pyrazol-4-yl)-5-(1H-pyrazol-4-yl)furan-2-carboxamide] |  | 26.5 |  |  | 

Further lines, results first:

EC50 (IL-23p19; Homo sapiens, THP-1, 18 h) [nM] | EC50 (IL-23 (p19/p40); Homo sapiens, 18 h) [nM] | EC50 (IL-23p19) [nM] | EC50 (IL-23 (p19/p40)) [nM] | EC50 (IL-23 (p19/p40); formate) [nM] | SMILES
13 | 24.2 |  |  |  | O=C(Nc1cn([C@H]2C[C@@H](O)C2)nc1-c1cccc(F)n1)c1csc(-c2cn[nH]c2)n1 [II-172, N-(3-(6-fluoropyridin-2-yl)-1-((cis)-3-hydroxycyclobutyl)-1H-pyrazol-4-yl)-2-(1H-pyrazol-4-yl)thiazole-4-carboxamide]
 | 106 | 56.6 |  |  | CCN(CC)CCn1cc(NC(=O)c2csc(-c3cn[nH]c3)n2)c(-c2ccccn2)n1 [II-117, N-(1-(2-(diethylamino)ethyl)-3-(pyridin-2-yl)-1H-pyrazol-4-yl)-2-(1H-pyrazol-4-yl)thiazole-4-carboxamide]
129 | 193 |  |  |  | COCCOCCn1cc(NC(=O)c2csc(-c3cn[nH]c3)n2)c(-c2ccccn2)n1 [II-37, N-(1-(2-(2-methoxyethoxy)ethyl)-3-(pyridin-2-yl)-1H-pyrazol-4-yl)-2-(1H-pyrazol-4-yl)thiazole-4-carboxamide]
137 | 5780 |  |  |  | CCO[C@H]1C[C@@H](n2cc(NC(=O)c3csc(-c4cn[nH]c4)n3)c(-c3ccc(C(F)(F)F)cn3)n2)C1 [II-86, N-(1-((1,3-cis)-3-ethoxycyclobutyl)-3-(5-(trifluoromethyl)pyridin-2-yl)-1H-pyrazol-4-yl)-2-(1H-pyrazol-4-yl)thiazole-4-carboxamide]
57.4 | 98.7 |  |  |  | CCO[C@@H]1CC[C@H](n2cc(NC(=O)c3csc(-c4cn[nH]c4)n3)c(-c3ccccn3)n2)C1 (relative stereo) [II-147, N-(1-((cis)-3-ethoxycyclopentyl)-3-(pyridin-2-yl)-1H-pyrazol-4-yl)-2-(1H-pyrazol-4-yl)thiazole-4-carboxamide]
 |  | 238 | 81.2 |  | CCN(CC)CCn1cc(NC(=O)c2csc(-c3cn[nH]c3)n2)c(-c2ccccn2)n1 [II-49, N-(1-(2-(diethylamino)ethyl)-3-(pyridin-2-yl)-1H-pyrazol-4-yl)-2-(1H-pyrazol-4-yl)thiazole-4-carboxamide]
 | 258 |  |  |  | CCO[C@H]1C[C@@H](n2cc(NC(=O)c3csc(-c4c[nH]nc4C)n3)c(-c3ccccn3)n2)C1 [II-92, N-(1-((1,3-cis)-3-ethoxycyclobutyl)-3-(pyridin-2-yl)-1H-pyrazol-4-yl)-2-(3-methyl-1H-pyrazol-4-yl)thiazole-4-carboxamide]
